Data taken from patent publication US20220056019A1, “FARNESOID X RECEPTOR AGONISTS AND USES THEREOF” (Metacrine, Inc., priority 2018, published 2022).

Target: T1, hFXR (Homo sapiens, UniProt Q96RI1)
T1 construct: expressed in transfected cells; host or cells: CV-1 cells
T1 sequence (Q96RI1 1-486): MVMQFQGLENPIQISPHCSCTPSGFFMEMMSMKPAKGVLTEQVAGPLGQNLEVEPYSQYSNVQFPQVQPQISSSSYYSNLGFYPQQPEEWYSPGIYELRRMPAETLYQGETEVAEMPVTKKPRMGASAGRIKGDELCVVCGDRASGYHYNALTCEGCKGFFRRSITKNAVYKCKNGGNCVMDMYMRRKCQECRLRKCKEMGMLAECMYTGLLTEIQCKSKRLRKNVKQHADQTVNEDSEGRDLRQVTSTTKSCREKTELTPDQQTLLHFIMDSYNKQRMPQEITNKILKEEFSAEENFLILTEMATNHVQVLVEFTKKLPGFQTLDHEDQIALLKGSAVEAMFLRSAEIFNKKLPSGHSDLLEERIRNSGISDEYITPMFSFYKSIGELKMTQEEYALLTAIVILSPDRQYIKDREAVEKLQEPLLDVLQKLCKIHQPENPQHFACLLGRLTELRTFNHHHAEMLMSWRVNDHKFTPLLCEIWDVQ
T1 sequence (P19793 1-462 partner): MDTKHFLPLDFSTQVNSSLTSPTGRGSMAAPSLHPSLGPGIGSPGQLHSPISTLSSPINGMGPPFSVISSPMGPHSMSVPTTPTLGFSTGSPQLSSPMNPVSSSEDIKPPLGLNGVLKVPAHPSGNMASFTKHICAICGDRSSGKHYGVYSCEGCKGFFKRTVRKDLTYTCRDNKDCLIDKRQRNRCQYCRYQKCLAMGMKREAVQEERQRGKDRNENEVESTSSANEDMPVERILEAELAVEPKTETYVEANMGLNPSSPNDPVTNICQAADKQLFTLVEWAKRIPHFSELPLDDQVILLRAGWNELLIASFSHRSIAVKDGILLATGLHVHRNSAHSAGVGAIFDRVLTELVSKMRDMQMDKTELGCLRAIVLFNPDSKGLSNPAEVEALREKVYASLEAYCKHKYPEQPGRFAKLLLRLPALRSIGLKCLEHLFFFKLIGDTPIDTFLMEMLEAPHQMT
Test: In Vitro FXR Assay (TK): TK-ECRE-luc reporter in transfected CV-1 cells
Type: cell-based
Conditions: 18 hrs incubation, luminescence
Summary of the method: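 CV-1 cells transiently cotransfected with hFXR, hRXR, TK-ECRE-luc reporter and pCMX-YFP plasmids in charcoal-stripped serum medium. Serially diluted compounds added for 18 h at 37° C., then cells lysed and luciferase luminescence measured.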

Row | Compound | EC50 [nM]
1 | COc1ccc(C23CCC(CN(c4cc(-c5cnn(C(C)C)c5)ccn4)C(=O)[C@H]4CC[C@H](NC(=O)OC5COC5)CC4)(CC2)CC3)cc1C [Compound 7.02, (trans)-Oxetan-3-yl (4-((4-(1-isopropyl-1H-pyrazol-4-yl)pyridin-2-yl)((4-(4-methoxy-3-methylphenyl)bicyclo[2.2.2]octan-1-yl)methyl)carbamoyl)cyclohexyl) carbamate] | ≤ 50
2 | COc1ccc(C23CCC(CN(c4cc(-c5cnn(C(C)C)c5)ccn4)C(=O)[C@H]4CC[C@H](OC(=O)N5CC(OCCO)C5)CC4)(CC2)CC3)cc1C [Compound 4.10, 4-((4-(1-Isopropyl-1H-pyrazol-4-yl)pyridin-2-yl)((4-(4-methoxy-3-methylphenyl)bicyclo [2.2.2]octan-1-yl)methyl)carbamoyl)cyclohexyl 3-(2-hydroxyethoxy) azetidine- trans-1-carboxylate] | ≤ 50
3 | COc1ccc([C@H]2CC[C@H](CN(c3cccc(-c4cnn(C(C)C)c4)c3)C(=O)[C@H]3CC[C@H](OC(=O)NCC(C)(C)O)CC3)CC2)cc1C [Compound 5.12, trans-4-((3-(1-Isopropyl-1H-pyrazol-4-yl)phenyl)((trans-4-(4-methoxy-3-methylphenyl)cyclohexyl)methyl)carbamoyl)cyclohexyl (2-hydroxy-2-methylpropyl)carbamate] | ≤ 50
4 | COc1ccc(C23CCC(CN(c4cc(-c5cnn(C6CCCC6)c5)ccn4)C(=O)[C@H]4CC[C@H](OC(=O)N5CC(CO)C5)CC4)(CC2)CC3)cc1C [Compound 23.09, 4-((4-(1-Cyclopentyl-1H-pyrazol-4-yl)pyridin-2-yl)((4-(4-methoxy-3-methylphenyl)bicyclo[2.2.2]octan-1-yl)methyl)carba-moyl)(trans-cyclohexyl) 3-(hydroxymethyl)azetidine-1-carboxylate] | ≤ 50
5 | CCOC(=O)N[C@H]1CC[C@H](C(=O)N(CC23CCC(c4ccc(OC)c(C)c4)(CC2)CC3)c2cc(-c3cnn(C(C)C)c3)ccn2)CC1 [Compound 8.01, (trans)-Ethyl (4-((4-(1-isopropyl-1H-pyrazol-4-yl)pyridin-2-yl)((4-(4-methoxy-3-methylphenyl)bicyclo[2.2.2]octan-1-yl)methyl)carbamoyl)cyclohexyl)car-bamate] | ≤ 50
6 | COc1ccc([C@H]2CC[C@H](CN(c3cccc(-c4cnn(C(C)C)c4)c3)C(=O)[C@H]3CC[C@H](OC(=O)NCC(C)(F)F)CC3)CC2)cc1C [Compound 5.06, trans-4-((3-(1-Isopropyl-1H-pyrazol-4-yl)phenyl)(((trans)-4-(4-methoxy-3-methylphenyl)cyclohexyl)methyl)carbamoyl)cyclohexyl (2,2-difluoropropyl)carbamate] | ≤ 50
7 | COc1ccc([C@H]2CC[C@H](CN(c3cc(-c4cnc(C5CC5)o4)ccn3)C(=O)[C@H]3CC[C@H](OC(=O)NCC(C)(C)O)CC3)CC2)cc1C [Compound 2.50, trans-4-((4-(2-Cyclopropyloxazol-5-yl)pyridin-2-yl)((trans-4-(4-methoxy-3-methylphenyl)cyclohexyl)methyl)carbamoyl)cyclohexyl (2-hydroxy-2-methylpropyl)carbamate] | ≤ 50
8 | COc1ccc(C23CCC(CN(c4cc(-c5cnc(C(C)C)s5)ccn4)C(=O)[C@H]4CC[C@H](OC(=O)N5CC(OCCO)C5)CC4)(CC2)CC3)cc1C [Compound 4.38, 4-((4-(2-Isopropylthiazol-5-yl)pyridin-2-yl)((4-(4-methoxy-3-methylphenyl)bicyclo[2.2.2]octan-1-yl)methyl)carbamoyl) (trans-cyclohexyl) 3-(2-hydroxyethoxy)azetidine-1-carboxylate] | ≤ 50
9 | COc1ccc([C@H]2CC[C@H](CN(c3cccc(-c4cnn(C(C)C)c4)c3)C(=O)[C@H]3CC[C@H](OC(=O)NC(C)C)CC3)CC2)cc1C [Compound 5.10, trans-4-((3-(1-Isopropyl-1H-pyrazol-4-yl)phenyl)((trans-4-(4-methoxy-3-methylphenyl)cyclohexyl)methyl)carbamoyl)cyclohexyl isopropylcarbamate] | ≤ 50
10 | COc1ccc(C23CCC(CN(c4cc(-c5cnn(C(C)C)c5)ccn4)C(=O)[C@H]4CC[C@H](OC(=O)NCC(C)(C)O)CC4)(CC2)CC3)cc1C [Compound 4.06, 4-((4-(1-Isopropyl-1H-pyrazol-4-yl)pyridin-2-yl)((4-(4-methoxy-3-methylphenyl)bicyclo [2.2.2]octan-1-yl)methyl)carbamoyl)cyclohexyl (2-hydroxy-2-methylpropyl)trans-carbamate] | ≤ 50
11 | Cn1ccc2nc([C@H]3CC[C@H](CN(c4cccc(-c5cnc(C6CC6)s5)c4)C(=O)[C@H]4CC[C@H](OC(=O)N5CC(O)C5)CC4)CC3)ccc21 [Compound 5.13, trans-4-((3-(2-Cyclopropylthiazol-5-yl)phenyl)(((trans)-4-(1-methyl-1H-pyrrolo[3,2-b]pyridin-5-yl)cyclohexyl)methyl)carbamoyl) cyclohexyl 3-hydroxyazetidine-1-carboxylate] | ≤ 50
12 | COc1ccc([C@H]2CC[C@H](CN(c3cccc(-c4cnn(C(C)C)c4)c3)C(=O)[C@H]3CC[C@H](CNC(=O)C(C)C)CC3)CC2)cc1C [Compound 12.02, (trans)-4-(Isobutyramidomethyl)-i-(3-(1-isopropyl-1H-pyrazol-4-yl)phenyl)-N-(((trans)-4-(4-methoxy-3-methylphenyl)cyclohexyl)methyl) cyclohexanecarboxamide] | 50 to 1000
13 | COc1ccc([C@H]2CC[C@H](CN(c3cc(-c4cnn(C(C)C)c4)ccn3)C(=O)[C@H]3CC[C@H](OC(=O)NCC(C)(C)O)CC3)CC2)cc1Cl [Compound 2.05, (trans)-4-((((trans)-4-(3-Chloro-4-methoxyphenyl)cyclohexyl)methyl)(4-(1-isopropyl-1H-pyrazol-4-yl)pyridin-2-yl)carbamoyl)cyclohexyl (2-hydroxy-2-methylpropyl)carbamate] | ≤ 50
14 | COc1ccc(C23CCC(CN(c4cc(-c5cnn(C(C)C)c5)ccn4)C(=O)[C@H]4CC[C@H](OC(=O)NCCC(C)(C)O)CC4)(CC2)CC3)cc1C [Compound 4.08, 4-((4-(1-Isopropyl-1H-pyrazol-4-yl)pyridin-2-yl)((4-(4-methoxy-3-methylphenyl)bicyclo [2.2.2]octan-1-yl)methyl)carbamoyl)cyclohexyl (3-hydroxy-3-methylbutyl)trans-carbamate] | ≤ 50
15 | COc1ccc([C@H]2CC[C@H](CN(c3cc(-c4cnn(C(C)C)c4)ccn3)C(=O)[C@H]3CC[C@H](OC(=O)NCC(C)(F)F)CC3)CC2)cc1C [Compound 2.31, trans-4-((4-(1-Isopropyl-1H-pyrazol-4-yl)pyridin-2-yl)(((trans)-4-(4-methoxy-3-methylphenyl)cyclohexyl)methyl)carbamoyl) cyclohexyl(2,2-difluoropropyl)carbamate] | ≤ 50
16 | COc1ccc(C23CCC(CN(c4cnnc(-c5cnn(C(C)C)c5)c4)C(=O)[C@H]4CC[C@H](OC(=O)N5CC(O)C5)CC4)(CC2)CC3)cc1C [Compound 4.61, 4-((6-(1-Isopropyl-1H-pyrazol-4-yl)pyridazin-4-yl)((4-(4-methoxy-3-methylphenyl)bicyclo [2.2.2]octan-1-yl)methyl)carbamoyl)(trans-cyclohexyl) 3-hydroxyazetidine-1-carboxylate] | 50 to 1000
